One experiment has as its system 4T1-GLF cells. The experiment in a line: In vivo imaging (IVIS) of lung tumor signals, 4T1-GLF. Set-up: species or system BALB/c mice. To be noted: 200 μg i.p. day -1; early phase 3 h and 6 h, late phase days 7, 10, 14. Here is the method:
FIGS. 25A-25F. Innate immune cells, NK cells and dendritic cells are activated following 1V270 therapy and contribute to anti-metastatic effects (A-C) Systemic administration of 1V270 activates dendritic cells and increases CD8^+ cell recruitment in the lung draini lymph node. (A) BALB/c mice (n=S/group) were treated with 1V270 on day −1 and then tumor cells were i.v. administered on day 0. Seven days later, mediastinal lymph node (mLN) cells were stained for dendritic cells (DC; CD45^+CD11c^+MHC classll^+). (B) DCs were further stained for CD80 and CD86. […] Tumor signals were quantified by IVIS. […] On the next day, lung cells were stained for NK markers (CD45^+[…] NKp46^+CD49^+) and analyzed by flow cytometry. […] Tumor signals were analyzed as described above. […]
(§1) GFP and luciferase (GLF)-expressing tumor cells (2×10^4 of 4T1-GLF, 5×10^5 of B16-GLF, and […] of LLC-GLF) were i.v. injected into BALB/c mice for 4T1 models, BG-albino or wild-type C57BU6 for B16 melanoma or LLC models). […] Image data were acquired by 1 Ss exposure using the IVIS Spectrum and analyzed using the Living Image software, version 4.5.2 (Perkin Elmer, Waltham, Mass.). We confirmed that the tumor signals in the lungs at day 10 correlated with the number of lung metastasis determined on day 21, as well as the overall survival (Supplemental figures 10). […]

A further experiment deals with LLC-GLF cells. The experiment in a line: IV metastasis model of Lewis lung carcinoma (LLC). It is filed as in vivo, mice. To be noted: systemic 1V270 day -1. Here is the method:
FIGS. 27A-27D. […] Therapeutic effects of 1V270 were evaluated in IV metastatic models of 816 melanoma (A, B) and LLC (C, D). BG-albino mice (n=B-10) (A, C), C57BL6 wild type mice (n=15-20) (B and D), were i.p. administered with 200 μg 1V270 or vehicle!iNext day, 5×10^5 B16-GLF cells (A) or 1×10^5 LLC-GLF cells (c) were i.v. administered (A,C). The tumor signals were quantified by IVIS at day 14. […] (B,D) The mice were monitored daily and were euthanized upon reaching the criteria according to UCSD IACUC guidelines. The survival data were analyzed by Log-Rank test. Data were pooled from 2 independent experiments showing similar results and were analyzed by Living Image® software. […] Statistical differences were analyzed by the Mann-Whitney U test comparing 1V270 treatment groups against the vehicle. **P<0.05.
as §1

Molecules are shown by their SMILES.

Regarding `CCCCCCCCC=CCCCCCCCC(=O)OCC(COP(=O)(O)OCCNC(=O)c1ccc(Cn2c(=O)[nH]c3c(N)nc(OCCOC)nc32)cc1)OC(=O)CCCCCCCC=CCCCCCCCC` (stereo not drawn) [1V270], in the experiment with 4T1-GLF cells, the “lung tumor signals (IVIS)” value is given as “significantly suppressed the tumor signals”. Moreover, the “lung metastasis (IVIS tumor signal)” value in the experiment with LLC-GLF cells (LLC-GLF, day 14) is “inhibited lung metastasis by day 14”. Also, the mouse survival entry in the experiment on LLC-GLF cells (LLC) is listed as “prolonged mouse survival”.

The values above are taken from patent US20200087625A1, “METHODS FOR ISOLATING, EXPANDING AND ADMINISTERING CANCER SPECIFIC CD8+ T CELLS” (priority 2017, published 2020).
